The values below are quoted from earlier work in paper PMC10644327, “A randomized, double‐blind phase 1b study evaluating the safety, tolerability, pharmacokinetics and pharmacodynamics of the NLRP3 inhibitor selnoflast in patients with moderate to severe active ulcerative colitis” (Clinical and Translational Medicine, 2023).

On the set-up of the data set: method as in earlier work. The conditions noted are these: added to standard‐of‐care therapy, patients with acute severe UC; cited from earlier work.

For anakinra, the Clinical outcome was “did not improve the clinical outcome”.
